Assay [1] concerns the target T1, ATR/ATRIP enzyme (Homo sapiens, UniProt Q13535).
T1 construct: purchased Eurofins 14-953
Description: ATR enzyme activity experiment (HTRF). The assay is classed as biochemical. The settings on record: for IC50: HTRF, p53 substrate, 30 minutes at room temperature; for inhibition at 0.05 µM: read-out: Inh %, inhibitory effects on ATR kinase activity at 50 nM. As to the method: The test compound was diluted to a 4× final concentration with reaction buffer (25 mM HEPES (pH8.0), 10 mM MnCl2, 1% glycerol, 0.01% Brij-35, 5 mM DTT and 0.1% BSA). […] The mixture was centrifuged at 1000 rpm for 1 minute, and reacted at room temperature protected from light for 30 minutes. Then 5 μL of EDTA stop solution (250 mM) was added to stop the reaction. […] Data were analyzed using GraphPad Prism6.0, and fitted using the curve equation: Y=Bottom+(Top−Bottom)/(1+10^((Log IC50−X)*HillSlope)) and IC50 values were calculated.

The subject of assay [2] is human lung cancer cell NCI-H460. The assay can be described thus: MTT proliferation assay, NCI-H460. The assay is classed as cell-based. The settings on record: Homo sapiens, NCI-H460, 96 h, 4 days, read-out: IC50 (nM), inhibition of proliferation of NCI-H460. The procedure: (§1) The cells were seeded into 96-well cell culture plate with a density of 2000/4000 cells per well and incubated overnight in a 5% CO2 incubator at 37° C. […] 5 L diluent of each concentration was added to 120 μL of medium (25 times diluted) and mixed by shaking. The overnight cell plates were taken and the culture medium was removed, 195 μL of fresh medium was added to each well, and 5 μL of diluted medium containing the corresponding concentration of the test compound was added respectively (the final concentration of DMSO is 1%), and the culture plate was then placed in a 5% CO2 incubator at 37° C. for 4 days. After removing the original solution, 100 μL of fresh serum-free DMEM medium containing MTT (0.5 mg/mL) was added to each well, the culture was continued. […] Cell viability (%)=(ODcompound−ODbackground)/(ODDMSO−ODbackground)×100. GraphPad Prism 6.0 was used to analyze the data. The inhibitory activity of compounds on cell proliferation was plotted based on cell viability and the logarithm of compound concentration.

Assay [3] concerns human colon cancer cell LoVo. Description: MTT proliferation assay, LoVo. The assay is classed as cell-based. The settings on record: Homo sapiens, LoVo, 96 h, 4 days, read-out: IC50 (nM), inhibition of proliferation of LoVo. As to the method:
as §1, with “5 μL” for “5 L”, “viability (%)=(ODcompound−ODbackground)/(ODDMSO-ODbackground)×100.” for “viability (%)=(ODcompound−ODbackground)/(ODDMSO−ODbackground)×100.”

T1 sequence (Q13535 whole entry): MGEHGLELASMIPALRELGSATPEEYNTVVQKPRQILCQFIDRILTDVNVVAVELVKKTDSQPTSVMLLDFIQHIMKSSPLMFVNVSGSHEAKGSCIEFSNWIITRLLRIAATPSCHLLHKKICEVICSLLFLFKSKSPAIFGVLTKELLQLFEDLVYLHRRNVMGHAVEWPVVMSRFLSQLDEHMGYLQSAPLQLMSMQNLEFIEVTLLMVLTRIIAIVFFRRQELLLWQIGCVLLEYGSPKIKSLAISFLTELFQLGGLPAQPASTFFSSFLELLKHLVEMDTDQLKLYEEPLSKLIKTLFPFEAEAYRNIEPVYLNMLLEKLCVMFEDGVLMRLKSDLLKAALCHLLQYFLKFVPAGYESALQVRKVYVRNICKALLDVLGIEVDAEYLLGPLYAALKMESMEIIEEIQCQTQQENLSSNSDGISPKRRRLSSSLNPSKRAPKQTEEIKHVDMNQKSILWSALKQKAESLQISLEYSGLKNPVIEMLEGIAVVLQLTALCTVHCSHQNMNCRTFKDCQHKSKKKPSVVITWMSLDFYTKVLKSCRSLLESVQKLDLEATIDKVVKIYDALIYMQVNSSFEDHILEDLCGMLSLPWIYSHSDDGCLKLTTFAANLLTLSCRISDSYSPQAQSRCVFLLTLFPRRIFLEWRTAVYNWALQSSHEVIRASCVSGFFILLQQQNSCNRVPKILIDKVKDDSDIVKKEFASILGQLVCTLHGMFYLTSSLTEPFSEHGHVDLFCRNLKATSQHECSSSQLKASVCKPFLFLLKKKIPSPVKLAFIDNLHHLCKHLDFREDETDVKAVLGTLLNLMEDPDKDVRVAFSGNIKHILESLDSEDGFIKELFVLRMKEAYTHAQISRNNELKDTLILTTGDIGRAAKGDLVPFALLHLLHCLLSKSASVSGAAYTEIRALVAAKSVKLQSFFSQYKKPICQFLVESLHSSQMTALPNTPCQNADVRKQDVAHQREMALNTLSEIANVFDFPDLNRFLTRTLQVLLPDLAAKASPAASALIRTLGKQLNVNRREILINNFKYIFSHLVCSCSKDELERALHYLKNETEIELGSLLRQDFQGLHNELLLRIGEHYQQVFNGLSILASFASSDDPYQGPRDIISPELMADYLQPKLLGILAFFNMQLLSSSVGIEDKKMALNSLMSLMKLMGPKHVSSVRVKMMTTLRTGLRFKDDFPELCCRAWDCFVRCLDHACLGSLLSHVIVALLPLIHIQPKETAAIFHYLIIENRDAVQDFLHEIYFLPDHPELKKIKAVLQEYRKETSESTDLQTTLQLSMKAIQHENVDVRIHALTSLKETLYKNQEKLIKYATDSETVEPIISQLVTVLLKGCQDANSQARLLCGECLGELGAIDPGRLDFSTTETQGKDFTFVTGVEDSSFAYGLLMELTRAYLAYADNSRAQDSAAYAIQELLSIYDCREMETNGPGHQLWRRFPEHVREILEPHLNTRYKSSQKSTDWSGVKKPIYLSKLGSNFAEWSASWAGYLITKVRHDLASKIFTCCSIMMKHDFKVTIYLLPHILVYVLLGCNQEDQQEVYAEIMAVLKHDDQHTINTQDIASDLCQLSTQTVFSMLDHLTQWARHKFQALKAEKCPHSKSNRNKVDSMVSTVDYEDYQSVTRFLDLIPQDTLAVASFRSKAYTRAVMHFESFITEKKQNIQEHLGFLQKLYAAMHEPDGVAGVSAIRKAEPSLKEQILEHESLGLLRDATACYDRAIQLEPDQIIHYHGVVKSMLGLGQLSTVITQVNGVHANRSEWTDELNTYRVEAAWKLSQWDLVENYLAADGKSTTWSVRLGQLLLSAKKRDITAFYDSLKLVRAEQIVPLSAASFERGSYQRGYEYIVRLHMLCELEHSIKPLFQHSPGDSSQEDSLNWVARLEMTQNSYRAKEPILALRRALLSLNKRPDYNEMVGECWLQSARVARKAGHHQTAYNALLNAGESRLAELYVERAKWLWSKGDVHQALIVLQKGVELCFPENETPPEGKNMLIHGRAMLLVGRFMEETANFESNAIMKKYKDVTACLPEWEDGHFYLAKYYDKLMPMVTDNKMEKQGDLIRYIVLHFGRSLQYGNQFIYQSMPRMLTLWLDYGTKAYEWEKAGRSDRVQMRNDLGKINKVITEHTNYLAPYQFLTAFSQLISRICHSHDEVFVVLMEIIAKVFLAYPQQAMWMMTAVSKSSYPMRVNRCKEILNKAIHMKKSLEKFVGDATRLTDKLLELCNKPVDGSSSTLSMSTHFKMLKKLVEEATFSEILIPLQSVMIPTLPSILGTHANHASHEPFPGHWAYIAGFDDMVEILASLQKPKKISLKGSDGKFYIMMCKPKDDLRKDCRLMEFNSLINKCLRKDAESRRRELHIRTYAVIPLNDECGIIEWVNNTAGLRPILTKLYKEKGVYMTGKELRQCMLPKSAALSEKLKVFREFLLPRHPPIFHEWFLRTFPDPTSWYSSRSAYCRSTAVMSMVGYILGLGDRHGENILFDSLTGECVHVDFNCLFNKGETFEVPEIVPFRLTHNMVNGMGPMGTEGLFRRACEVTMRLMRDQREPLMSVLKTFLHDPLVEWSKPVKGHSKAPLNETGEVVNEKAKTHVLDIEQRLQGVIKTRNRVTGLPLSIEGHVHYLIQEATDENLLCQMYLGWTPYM
T1 sequence (Q8WXE1 whole entry partner): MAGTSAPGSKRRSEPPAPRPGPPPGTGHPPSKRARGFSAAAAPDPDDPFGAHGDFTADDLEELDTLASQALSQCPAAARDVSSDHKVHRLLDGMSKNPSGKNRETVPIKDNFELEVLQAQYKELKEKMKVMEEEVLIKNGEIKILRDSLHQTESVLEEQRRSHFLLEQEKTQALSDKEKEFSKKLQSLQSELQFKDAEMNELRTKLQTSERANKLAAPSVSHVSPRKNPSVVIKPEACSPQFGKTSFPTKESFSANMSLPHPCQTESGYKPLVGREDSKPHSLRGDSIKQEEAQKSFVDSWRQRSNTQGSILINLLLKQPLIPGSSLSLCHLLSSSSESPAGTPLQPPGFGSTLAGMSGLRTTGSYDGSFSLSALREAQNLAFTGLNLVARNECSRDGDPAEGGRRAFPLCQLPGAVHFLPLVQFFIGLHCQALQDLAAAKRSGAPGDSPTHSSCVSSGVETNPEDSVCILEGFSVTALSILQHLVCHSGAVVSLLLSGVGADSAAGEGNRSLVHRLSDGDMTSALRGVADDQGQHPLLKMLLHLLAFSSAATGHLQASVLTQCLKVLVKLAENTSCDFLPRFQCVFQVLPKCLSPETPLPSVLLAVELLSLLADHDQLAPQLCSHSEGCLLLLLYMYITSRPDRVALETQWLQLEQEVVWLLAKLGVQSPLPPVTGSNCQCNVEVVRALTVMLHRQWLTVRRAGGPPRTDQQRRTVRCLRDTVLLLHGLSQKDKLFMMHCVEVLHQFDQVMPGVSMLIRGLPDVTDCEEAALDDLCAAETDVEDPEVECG

Regarding `C[C@@H]1COCCN1c1cc(-c2ccnn2C)c2ncc(-c3ccn[nH]3)n2c1` [Example 1, (R)-3-methyl-4-(8-(1-methyl-1H-pyrazol-5-yl)-3-(1H-pyrazol-5-yl)imidazo[1,2-a]pyridin-6-yl)morpholine], the IC50 in assay [1] was over 10000 nM.

Consider `C[C@@H]1COCCN1c1cc(-c2cncn2C)c2ncc(-c3ccn[nH]3)n2n1` [Example 5, (R)-3-methyl-4-(8-(1-methyl-1H-imidazol-5-yl)-3-(1H-pyrazol-5-yl)imidazo[1,2-b]pyridazin-6-yl)morpholine], for which the results for the IC50 in assay [2], in assay [1] and in assay [3] were 1610 nM, 58.9 nM and 557 nM, respectively.

For `Cn1nccc1-c1cc(N2CCOCC2)nn2c(-c3ccn[nH]3)ncc12` [Example 11, 4-(4-(1-methyl-1H-pyrazol-5-yl)-7-(1H-pyrazol-5-yl)imidazol[1,5-b]pyridazin-2-yl)morpholine], the figures for the IC50 in assay [2] and in assay [3] were 159 nM and 168 nM, respectively. Besides, in assay [1], the inhibition at 0.05 µM is 63%.

As to `Cn1nccc1-c1cc(N2CCOCC2)nn2c(-c3ccn[nH]3)nnc12` [Example 12, 4-(8-(1-methyl-1H-pyrazol-5-yl)-3-(1H-pyrazol-5-yl)-[1,2,4]triazolo[4,3-b]pyridazin-6-yl)morpholine], the IC50 in assay [2] was over 10000 nM; in assay [3], 3230 nM.

For the molecule `C[C@@H]1COCCN1c1cc(-c2ccnn2C)c2nnc(-c3ccn[nH]3)n2n1` [Example 15, (R)-3-methyl-4-(8-(1-methyl-1H-pyrazol-5-yl)-3-(1H-pyrazol-5-yl)-[1,2,4]triazolo[4,3-b]pyridazin-6-yl)morpholine], the IC50 in assay [2] was 1920 nM; in assay [3] it was 597 nM.

Take `C[C@@H]1COCCN1c1cc(-c2ccnn2C)c2cnc(-c3cc[nH]c3)n2n1` [Example 21, (R)-3-methyl-4-(4-(1-methyl-1H-pyrazol-5-yl)-7-(1H-pyrrol-3-yl)imidazo[1,5-b]pyridazin-2-yl)morpholine]: the IC50 in assay [2] is 244 nM; in assay [1], 6.78 nM; in assay [3], 155 nM.

For the molecule `C[C@@H]1COCCN1c1cc(-c2ccnn2C)c2cnc(-c3ccc[nH]3)n2n1` [Example 22, (R)-3-methyl-4-(4-(1-methyl-1H-pyrazol-5-yl)-7-(1H-pyrrol-2-yl)imidazo[1,5-b]pyridazin-2-yl)morpholine], the results for the IC50 in assay [2], in assay [1] and in assay [3] were 1150 nM, 2.06 nM and 854 nM, respectively.

Consider `C[C@@H]1COCCN1c1cc(-c2ccnn2C)c2cnc(-c3c[nH]cn3)n2n1` [Example 23, (R)-4-(7-(1H-imidazol-4-yl)-4-(1-methyl-1H-pyrazol-5-yl)imidazo[1,5-b]pyridazin-2-yl)-3-methylmorpholine], for which the IC50 in assay [2] was 1800 nM; in assay [1], over 1000 nM; in assay [3] it was 1530 nM.

For the molecule `Cc1ccc(-c2cc(N3CCOC[C@H]3C)nn3c(-c4ccn[nH]4)ncc23)cn1` [Example 24, (R)-3-methyl-4-(4-(6-methylpyridin-3-yl)-7-(1H-pyrazol-5-yl)imidazo[1,5-b]pyridazin-2-yl)morpholine], the results for the IC50 in assay [2], in assay [1] and in assay [3] were 27.8 nM, 2 nM and 34.4 nM, respectively.

In the case of `C[C@@H]1COCCN1c1cc(-c2ccccc2F)c2cnc(-c3ccn[nH]3)n2n1` [Example 25, (R)-4-(4-(2-fluorophenyl)-7-(1H-pyrazol-5-yl)imidazo[1,5-b]pyridazin-2-yl)-3-methylmorpholine], the IC50 in assay [2] was found to be 40.4 nM; in assay [1], 7 nM; in assay [3], 61.9 nM.

For `CC(C)n1nccc1-c1cc(N2CCOC[C@H]2C)nn2c(-c3ccn[nH]3)ncc12` [Example 26, (R)-4-(4-(1-isopropyl-1H-pyrazol-5-yl)-7-(1H-pyrazol-5-yl)imidazo[1,5-b]pyridazin-2-yl)-3-methylmorpholine], the IC50 in assay [2] is 55.2 nM; in assay [1], 6 nM; in assay [3], 68.2 nM.

On to `C[C@@H]1COCCN1c1cc(-c2ccn[nH]2)c2cnc(-c3ccn[nH]3)n2n1` [Example 27, (R)-4-(4,7-di(1H-pyrazol-5-yl)imidazo[1,5-b]pyridazin-2-yl)-3-methylmorpholine], for which the IC50 in assay [2] stood at 287 nM; in assay [3], 124 nM.

Regarding `C[C@@H]1COCCN1c1cc(C2CC2)c2cnc(-c3ccn[nH]3)n2n1` [Example 32, (R)-4-(4-cyclopropyl-7-(1H-pyrazol-5-yl)imidazo[1,5-b]pyridazin-2-yl)-3-methylmorpholine], the IC50 in assay [2] is 78.6 nM; in assay [1], 15 nM; in assay [3], 87.3 nM.

As to `C[C@H]1COCCN1c1cc(-c2ccnn2C)c2cnc(-c3ccn[nH]3)n2n1` [Example 33, (S)-3-methyl-4-(4-(1-methyl-1H-pyrazol-5-yl)-7-(1H-pyrazol-5-yl)imidazo[1,5-b]pyridazin-2-yl)morpholine], the IC50 in assay [2] was determined as 256 nM; in assay [3], 230 nM. The inhibition at 0.05 µM in assay [1] was found to be 27%.

In the case of `C[C@@H]1COC[C@@H](C)N1c1cc(-c2ccnn2C)c2cnc(-c3ccn[nH]3)n2n1` [Example 34, (3R,5R)-3,5-dimethyl-4-(4-(1-methyl-1H-pyrazol-5-yl)-7-(1H-pyrazol-5-yl)imidazo[1,5-b]pyridazin-2-yl)morpholine], the IC50 worked out at 1520 nM in assay [2] and 953 nM in assay [3].

For the molecule `C[C@@H]1COCCN1c1cc(-c2ccc(S(C)(=O)=O)cc2)c2cnc(-c3ccn[nH]3)n2n1` [Example 35, (R)-3-methyl-4-(4-(4-(methylsulfonyl)phenyl)-7-(1H-pyrazol-5-yl)imidazo[1,5-b]pyridazin-2-yl)morpholine], the IC50 amounted to 171 nM in assay [2] and 75.4 nM in assay [3]. The inhibition at 0.05 µM in assay [1] is 71%.

Turning to `Cc1ccc(C)n1-c1cc(N2CCOC[C@H]2C)nn2c(-c3ccn[nH]3)ncc12` [Example 36, (R)-4-(4-(2,5-dimethyl-1H-pyrrol-1-yl)-7-(1H-pyrazol-5-yl)imidazo[1,5-b]pyridazin-2-yl)-3-methylmorpholine], the IC50 in assay [2] worked out at 116 nM; in assay [3], 114 nM. Besides, the inhibition at 0.05 µM in assay [1] was 63%.

As to `CCn1nccc1-c1cc(N2CCOC[C@H]2C)nn2c(-c3ccn[nH]3)ncc12` [Example 37, (R)-4-(4-(1-ethyl-1H-pyrazol-5-yl)-7-(1H-pyrazol-5-yl)imidazo[1,5-b]pyridazin-2-yl)-3-methylmorpholine], the IC50 in assay [2] stood at 58.8 nM; in assay [1] it was 7 nM; in assay [3], 45 nM.

For the molecule `Cc1n[nH]cc1-c1cc(N2CCOC[C@H]2C)nn2c(-c3ccn[nH]3)ncc12` [Example 38, (R)-3-methyl-4-(4-(3-methyl-1H-pyrazol-4-yl)-7-(1H-pyrazol-5-yl)imidazo[1,5-b]pyridazin-2-yl)morpholine], the IC50 in assay [2] worked out at 419 nM; in assay [3], 128 nM. The inhibition at 0.05 µM in assay [1] came to 90%.

For the molecule `Cc1cnccc1-c1cc(N2CCOC[C@H]2C)nn2c(-c3ccn[nH]3)ncc12` [Example 51, (R)-3-methyl-4-(4-(3-methylpyridin-4-yl)-7-(1H-pyrazol-5-yl)imidazo[1,5-b]pyridazin-2-yl)morpholine], the IC50 stood at 76.3 nM in assay [2] and 76.7 nM in assay [3].

Turning to `C[C@@H]1COCCN1c1cc(-c2ccnc3[nH]ccc23)c2cnc(-c3ccn[nH]3)n2n1` [Example 55, (R)-4-(7-(1H-pyrazol-5-yl)-4-(1H-pyrrolo[2,3-b]pyridin-4-yl)imidazo[1,5-b]pyridazin-2-yl)-3-methylmorpholine], the IC50 in assay [2] was 95.3 nM; in assay [3], 51 nM.

Regarding `C[C@@H]1COCCN1c1cc(-c2ccn(CCF)n2)c2cnc(-c3ccn[nH]3)n2n1` [Example 61, (R)-4-(4-(1-(2-fluoroethyl)-1H-pyrazol-3-yl)-7-(1H-pyrazol-5-yl)imidazo[1,5-b]pyridazin-2-yl)-3-methylmorpholine], the values for the IC50 in assay [2] and in assay [3] were 169 nM and 175 nM, respectively.

For the origin of these results see patent publication US12479848B2, “Substituted fused heteroaromatic bicyclic compounds as kinase inhibitors and the use thereof” (IMPACT THERAPEUTICS (SHANGHAI), INC, priority 2019, dated 2025).
